According to paper PMC9471462, “The nematode serotonin-gated chloride channel MOD-1: A novel target for anthelmintic therapy” (The Journal of Biological Chemistry, 2022):
Blank lines part the entries; values can stand above or below the compound they belong to.

Assays:
[1] = molecular target: T1, MOD-1 (Caenorhabditis elegans, UniProt Q9GQ00); test: whole-cell patch clamp in BOSC-23 cells, preincubation; weak partial reduction of 5-HT peak current at […]; type: cell-based
[2] = molecular target: T1, MOD-1; test: whole-cell patch clamp of homomeric MOD-1 expressed in BOSC-23 cells, agonist concentration-response (efficacy about […]); type: cell-based
[3] = molecular target: T1, MOD-1; test: cell-based
[4] = molecular target: T1, MOD-1; test: whole-cell patch clamp in BOSC-23 cells, inhibition of […] 5-HT currents after […] s preincubation; type: cell-based

T1 sequence (Q9GQ00 21-489): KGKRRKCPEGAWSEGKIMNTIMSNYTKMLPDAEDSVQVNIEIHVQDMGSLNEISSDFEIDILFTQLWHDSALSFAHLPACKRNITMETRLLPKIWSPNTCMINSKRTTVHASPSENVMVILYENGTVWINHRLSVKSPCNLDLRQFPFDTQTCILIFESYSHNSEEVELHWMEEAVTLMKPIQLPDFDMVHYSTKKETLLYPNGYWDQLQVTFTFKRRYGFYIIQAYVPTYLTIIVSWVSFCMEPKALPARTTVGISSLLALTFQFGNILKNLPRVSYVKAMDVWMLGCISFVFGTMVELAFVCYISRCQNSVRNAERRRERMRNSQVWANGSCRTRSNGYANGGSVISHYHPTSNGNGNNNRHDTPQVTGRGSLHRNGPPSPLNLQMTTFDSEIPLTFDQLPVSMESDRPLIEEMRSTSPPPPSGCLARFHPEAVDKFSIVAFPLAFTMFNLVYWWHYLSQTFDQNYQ

Structure (SMILES): O=C(O)C1=CCNCC1 [isoguvacine]
- inhibition at 1000 µM [1]: 23 ± 14%

Structure (SMILES): NCCc1c[nH]c2ccccc12 [Tryp, tryptamine]
- EC50 [2]: 47 ± 11 µM

- IC50 [3]: 113 ± 29 µM
Structure (SMILES): C1CNCCN1 [PZE, piperazine]

Structure (SMILES): NCc1cc(=O)[nH]o1 [muscimol]
- IC50 [4]: 249 ± 160 µM
